Publication PMC9683047, “Design, synthesis and biological evaluation of 4-aminoquinoline derivatives as receptor-interacting protein kinase 2 (RIPK2) inhibitors” (Journal of Enzyme Inhibition and Medicinal Chemistry, 2022)

Legend:
RIPK2 [1] = target: T1, RIPK2 (Homo sapiens, UniProt O43353); assay: RIPK2 kinase inhibition assay (ADP-Glo); assay type: biochemical; settings: mean ± SD from two separate experiments
T1 construct: purchased Promega
Experimental: RIPK2 kinase activity was analysed using the ADP-Glo™ Assay Kit (RIPK2 Kinase Enzyme System, Promega, USA). Reactions were performed according to the instructions. Specific signal was calculated by subtracting values in the wells without protein and inhibitor from the values in the test wells.

RIPK2 [2] = target: T1, RIPK2; assay: Lipophilic ligand efficiency (LipE); settings: LipE = pIC50 − ClogP
RIPK1 = target: T2, RIPK1 (Homo sapiens, UniProt Q13546); assay: RIPK1 inhibition rate at 1 µM; assay type: biochemical
T2 sequence (Q13546 1-671): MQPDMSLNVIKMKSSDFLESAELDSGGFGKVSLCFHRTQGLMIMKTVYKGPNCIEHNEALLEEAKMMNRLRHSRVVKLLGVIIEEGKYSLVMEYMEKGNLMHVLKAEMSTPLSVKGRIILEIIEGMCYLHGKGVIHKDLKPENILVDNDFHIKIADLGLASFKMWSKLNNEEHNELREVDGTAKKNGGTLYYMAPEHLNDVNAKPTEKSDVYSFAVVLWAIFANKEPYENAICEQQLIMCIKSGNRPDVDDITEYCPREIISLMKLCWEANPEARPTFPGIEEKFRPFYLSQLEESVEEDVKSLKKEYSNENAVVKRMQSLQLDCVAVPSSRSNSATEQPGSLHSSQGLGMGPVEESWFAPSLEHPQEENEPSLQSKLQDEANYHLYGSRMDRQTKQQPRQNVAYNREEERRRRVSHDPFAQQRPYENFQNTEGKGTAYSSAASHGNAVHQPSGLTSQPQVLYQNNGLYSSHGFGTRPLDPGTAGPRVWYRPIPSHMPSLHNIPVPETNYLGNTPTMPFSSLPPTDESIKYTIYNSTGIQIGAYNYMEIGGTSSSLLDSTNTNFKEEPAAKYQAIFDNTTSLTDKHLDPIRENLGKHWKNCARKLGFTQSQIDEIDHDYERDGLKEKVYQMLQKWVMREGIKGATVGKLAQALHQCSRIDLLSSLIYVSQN
Experimental: Table 4. Selectivity, ClogP and LipE of compound 14, 15, 21, 32, 36. | column: RIPK1 IR@1µM (%)

T1 sequence (O43353 whole entry): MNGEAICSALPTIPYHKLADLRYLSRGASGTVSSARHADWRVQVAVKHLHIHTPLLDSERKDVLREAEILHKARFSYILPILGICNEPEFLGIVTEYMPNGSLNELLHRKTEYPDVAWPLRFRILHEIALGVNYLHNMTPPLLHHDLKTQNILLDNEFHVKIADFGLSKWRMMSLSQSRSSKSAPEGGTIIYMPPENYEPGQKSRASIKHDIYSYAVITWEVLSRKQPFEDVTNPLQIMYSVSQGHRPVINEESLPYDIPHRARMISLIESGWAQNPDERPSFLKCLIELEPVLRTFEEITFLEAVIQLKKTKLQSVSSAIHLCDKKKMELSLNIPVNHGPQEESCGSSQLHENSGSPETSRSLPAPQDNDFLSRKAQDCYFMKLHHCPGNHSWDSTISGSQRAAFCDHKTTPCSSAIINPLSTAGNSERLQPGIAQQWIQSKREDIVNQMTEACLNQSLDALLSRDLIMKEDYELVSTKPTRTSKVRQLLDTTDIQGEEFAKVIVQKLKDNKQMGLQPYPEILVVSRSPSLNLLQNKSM

For Brc1ccc2nccc(Nc3ccccc3)c2c1 [Compound 1, 6-Bromo-N-phenylquinolin-4-amine], the IC50 (RIPK2 [1]) was 0.243 ± 0.0148 µM and the LipE (RIPK2 [2]) was 2.57.

Work on COc1cc(Nc2ccnc3ccc(-c4ccccn4)cc23)cc(OC)c1OC [Compound 33, 6-(Pyridin-2-yl)-N-(3,4,5-trimethoxyphenyl)quinolin-4-amine] yielded an IC50 (RIPK2 [1]) of 0.0124 ± 0.0089 µM and a LipE (RIPK2 [2]) of 3.26.

With c1cc(Nc2ccc3scnc3c2)c2cc(-c3ccc4[nH]ccc4c3)ccc2n1 [Compound 25, N-(6-(1H-indol-5-yl)quinolin-4-yl)benzo[d]thiazol-5-amine] the IC50 (RIPK2 [1]) was 0.0111 ± 0.0036 µM and the LipE (RIPK2 [2]) was 3.87.

Fc1cc(Nc2ccnc3ccc(Br)cc23)ccc1Cl [Compound 5, 6-Bromo-N-(4-chloro-3-fluorophenyl)quinolin-4-amine] was tested, and the IC50 (RIPK2 [1]) was 0.0314 ± 0.0062 µM and the LipE (RIPK2 [2]) was 2.78.

Compound Brc1ccc2nccc(Nc3ccncc3)c2c1 [Compound 9, 6-Bromo-N-(pyridin-4-yl)quinolin-4-amine] has an IC50 (RIPK2 [1]) of 0.421 ± 0.106 µM and a LipE (RIPK2 [2]) of 3.24.

COc1cc(Nc2ccnc3ccc(-c4ccncc4)cc23)cc(OC)c1OC [Compound 31, 6-(Pyridin-4-yl)-N-(3,4,5-trimethoxyphenyl)quinolin-4-amine] gave an IC50 (RIPK2 [1]) of 0.0081 ± 0.0039 µM and a LipE (RIPK2 [2]) of 3.87.

With CC(C)Oc1cccc(Nc2ccnc3ccc(Br)cc23)c1 [Compound 3, 6-Bromo-N-(3-isopropoxyphenyl)quinolin-4-amine] the IC50 (RIPK2 [1]) was > 1 µM and the “RIPK2 IC50” value (RIPK2 [1]) was “loss of the activity”.

Compound c1cc(Nc2ccc3scnc3c2)c2cc(-c3cn[nH]c3)ccc2n1 [Compound 20, N-(6-(1H-pyrazol-4-yl)quinolin-4-yl)benzo[d]thiazol-5-amine] has an IC50 (RIPK2 [1]) of 0.0082 ± 0.0016 µM and a LipE (RIPK2 [2]) of 3.04.

c1cc(Nc2ccc3scnc3c2)c2cc(-c3ccnc4[nH]ccc34)ccc2n1 [Compound 28, N-(6-(1H-pyrrolo[2,3-b]pyridin-4-yl)quinolin-4-yl)benzo[d]thiazol-5-amine] was tested, and the IC50 (RIPK2 [1]) was 0.0073 ± 0.0035 µM and the LipE (RIPK2 [2]) was 3.46.

Cc1n[nH]cc1-c1ccc2nccc(Nc3ccc4scnc4c3)c2c1 [Compound 21, N-(6–(3-methyl-1H-pyrazol-4-yl)quinolin-4-yl)benzo[d]thiazol-5-amine] was tested, and the IC50 (RIPK2 [1]) was 0.0041 ± 0.0009 µM, the “RIPK1 IR@1µM (%)” value (RIPK1) was <1% and the LipE (RIPK2 [2]) was 4.99.

With Brc1ccc2nccc(Nc3ccc4[nH]ccc4c3)c2c1 [Compound 13, 6-Bromo-N-(1H-indol-5-yl)quinolin-4-amine] the IC50 (RIPK2 [1]) was 0.118 ± 0.0215 µM and the LipE (RIPK2 [2]) was 2.82.

Compound c1cc(-c2ccc3nccc(Nc4ccc5scnc5c4)c3c2)c2cc[nH]c2c1 [Compound 26, N-(6-(1H-indol-4-yl)quinolin-4-yl)benzo[d]thiazol-5-amine] has an IC50 (RIPK2 [1]) of 0.0094 ± 0.0011 µM and a LipE (RIPK2 [2]) of 5.00.

With c1ccc2ncc(-c3ccc4nccc(Nc5ccc6scnc6c5)c4c3)cc2c1 [Compound 30, N-([3,6'-biquinolin]-4'-yl)benzo[d]thiazol-5-amine] the IC50 (RIPK2 [1]) was 0.0417 ± 0.019 µM and the LipE (RIPK2 [2]) was 2.80.

With Brc1ccc2nccc(Nc3ccc4scnc4c3)c2c1 [Compound 10, N-(6-bromoquinolin-4-yl)benzo[d]thiazol-5-amine] the IC50 (RIPK2 [1]) was 0.0122 ± 0.0025 µM and the LipE (RIPK2 [2]) was 3.97.

With COc1cc(Nc2ccnc3ccc(-c4cnn(C)c4)cc23)cc(OC)c1OC [Compound 36, 6–(1-Methyl-1H-pyrazol-4-yl)-N-(3,4,5-trimethoxyphenyl)quinolin-4-amine] the IC50 (RIPK2 [1]) was 0.0072 ± 0.0026 µM, the “RIPK1 IR@1µM (%)” value (RIPK1) was <1% and the LipE (RIPK2 [2]) was 3.67.

For COc1cc(Nc2ccnc3ccc(-c4cccnc4)cc23)cc(OC)c1OC [Compound 32, 6-(Pyridin-3-yl)-N-(3,4,5-trimethoxyphenyl)quinolin-4-amine], the IC50 (RIPK2 [1]) was 0.0024 ± 0.0002 µM, the “RIPK1 IR@1µM (%)” value (RIPK1) was 19% and the LipE (RIPK2 [2]) was 4.30.

In the case of COc1cc(Nc2ccnc3ccc(-c4cncnc4)cc23)cc(OC)c1OC [Compound 34, 6-(Pyrimidin-5-yl)-N-(3,4,5-trimethoxyphenyl)quinolin-4-amine], the IC50 (RIPK2 [1]) is reported as 0.011 ± 0.0017 µM and the LipE (RIPK2 [2]) is reported as 4.58.

Compound CC(=O)c1cccc(Nc2ccnc3ccc(Br)cc23)c1 [Compound 4, 1–(3-((6-Bromoquinolin-4-yl)amino)phenyl)ethan-1-one] has an IC50 (RIPK2 [1]) of 0.0925 ± 0.0221 µM and a LipE (RIPK2 [2]) of 3.50.

Compound COc1cccc(Nc2ccnc3ccc(Br)cc23)c1 [Compound 2, 6-Bromo-N-(3-methoxyphenyl)quinolin-4-amine] has an IC50 (RIPK2 [1]) of 0.0548 ± 0.0034 µM and a LipE (RIPK2 [2]) of 3.10.

Brc1ccc2nccc(Nc3cccnc3)c2c1 [Compound 8, 6-Bromo-N-(pyridin-3-yl)quinolin-4-amine] showed an IC50 (RIPK2 [1]) of 0.151 ± 0.0301 µM and a LipE (RIPK2 [2]) of 3.68.

For c1cc(-c2ccc3nccc(Nc4ccc5scnc5c4)c3c2)c2cn[nH]c2c1 [Compound 27, N-(6-(1H-indazol-4-yl)quinolin-4-yl)benzo[d]thiazol-5-amine], the IC50 (RIPK2 [1]) was 0.0037 ± 0.0004 µM.

In the case of c1ccc(-c2ccc3nccc(Nc4ccc5scnc5c4)c3c2)cc1 [Compound 18, N-(6-phenylquinolin-4-yl)benzo[d]thiazol-5-amine], the IC50 (RIPK2 [1]) is reported as 0.024 ± 0.0116 µM and the LipE (RIPK2 [2]) is reported as 5.81.

For Brc1ccc2nccc(Nc3ccc4cn[nH]c4c3)c2c1 [Compound 12, 6-Bromo-N-(1H-indazol-6-yl)quinolin-4-amine], the IC50 (RIPK2 [1]) was 0.0222 ± 0.0052 µM and the LipE (RIPK2 [2]) was 3.49.

Work on Brc1ccc2nccc(Nc3ccc4ncsc4c3)c2c1 [Compound 11, N-(6-bromoquinolin-4-yl)benzo[d]thiazol-6-amine] yielded an IC50 (RIPK2 [1]) of 0.0823 ± 0.0122 µM and a LipE (RIPK2 [2]) of 3.21.

Compound COc1cc(Nc2ccnc3ccc(-c4cn[nH]c4)cc23)cc(OC)c1OC [Compound 37, 6–(1 h-pyrazol-4-yl)-N-(3,4,5-trimethoxyphenyl)quinolin-4-amine] has an IC50 (RIPK2 [1]) of 0.0145 ± 0.0056 µM and a LipE (RIPK2 [2]) of 4.22.

c1ccc2c(-c3ccc4nccc(Nc5ccc6scnc6c5)c4c3)cncc2c1 [Compound 29, N-(6-(isoquinolin-4-yl)quinolin-4-yl)benzo[d]thiazol-5-amine] showed an IC50 (RIPK2 [1]) of 0.0172 ± 0.0023 µM and a LipE (RIPK2 [2]) of 3.81.

For COc1cc(Nc2ccnc3ccc(-c4c[nH]nc4C)cc23)cc(OC)c1OC [Compound 38, 6–(3-Methyl-1H-pyrazol-4-yl)-N-(3,4,5-trimethoxyphenyl)quinolin-4-amine], the IC50 (RIPK2 [1]) was 0.0192 ± 0.0007 µM and the LipE (RIPK2 [2]) was 3.79.

Work on Cc1nn(C)cc1-c1ccc2nccc(Nc3ccc4scnc4c3)c2c1 [Compound 23, N-(6–(1,3-dimethyl-1H-pyrazol-4-yl)quinolin-4-yl)benzo[d]thiazol-5-amine] yielded an IC50 (RIPK2 [1]) of 0.0095 ± 0.0037 µM and a LipE (RIPK2 [2]) of 2.92.

For Brc1ccc2nccc(Nc3ccccn3)c2c1 [Compound 7, 6-Bromo-N-(pyridin-2-yl)quinolin-4-amine], the IC50 (RIPK2 [1]) was > 1 µM.

Work on Cc1cnn(C)c1-c1ccc2nccc(Nc3ccc4scnc4c3)c2c1 [Compound 22, N-(6–(1,4-dimethyl-1H-pyrazol-5-yl)quinolin-4-yl)benzo[d]thiazol-5-amine] yielded an IC50 (RIPK2 [1]) of 0.019 ± 0.0067 µM and a LipE (RIPK2 [2]) of 3.86.

COc1cc(Nc2ccnc3ccc(-c4cccc5[nH]ncc45)cc23)cc(OC)c1OC [Compound 35, 6–(1 h-indazol-4-yl)-N-(3,4,5-trimethoxyphenyl)quinolin-4-amine] showed an IC50 (RIPK2 [1]) of 0.0071 ± 0.0047 µM and a LipE (RIPK2 [2]) of 3.24.

With c1ncc(-c2ccc3nccc(Nc4ccc5scnc5c4)c3c2)cn1 [Compound 17, N-(6-(pyrimidin-5-yl)quinolin-4-yl)benzo[d]thiazol-5-amine] the IC50 (RIPK2 [1]) was 0.0015 ± 0.0003 µM and the LipE (RIPK2 [2]) was 2.80.

For c1ccc(-c2ccc3nccc(Nc4ccc5scnc5c4)c3c2)nc1 [Compound 16, N-(6-(pyridin-2-yl)quinolin-4-yl)benzo[d]thiazol-5-amine], the IC50 (RIPK2 [1]) was 0.0036 ± 0.0014 µM and the LipE (RIPK2 [2]) was 4.11.

Cc1cscc1-c1ccc2nccc(Nc3ccc4scnc4c3)c2c1 [Compound 24, N-(6–(4-methylthiophen-3-yl)quinolin-4-yl)benzo[d]thiazol-5-amine] gave an IC50 (RIPK2 [1]) of 0.0196 ± 0.012 µM and a LipE (RIPK2 [2]) of 2.37.

COc1cc(Nc2ccnc3ccc(Br)cc23)cc(OC)c1OC [Compound 6, 6-Bromo-N-(3,4,5-trimethoxyphenyl)quinolin-4-amine] gave an IC50 (RIPK2 [1]) of 0.0107 ± 0.0001 µM and a LipE (RIPK2 [2]) of 3.63.

Compound Cn1cc(-c2ccc3nccc(Nc4ccc5scnc5c4)c3c2)cn1 [Compound 19, N-(6–(1-methyl-1H-pyrazol-4-yl)quinolin-4-yl)benzo[d]thiazol-5-amine] has an IC50 (RIPK2 [1]) of 0.0164 ± 0.0016 µM and a LipE (RIPK2 [2]) of 3.08.
